{"source": "patent US10597388B2", "about": "“Pyridazinone herbicides” (FMC CORPORATION, priority 2014, dated 2020)", "assay_in_all_cases": "Test D controlled growth environment herbicide test, pre- and postemergence", "format_in_all_cases": "in vivo", "key": {"[1]": {"system": "speedwell (bird's-eye speedwell, Veronica persica)", "in_short": "(§1)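 Rating is visual, 0–100 scale (100 = complete control), made against untreated plants 14–21 d after treatment in controlled growth conditions. Postemergence sprays went onto 1- to 4-leaf plants in peat medium; preemergence sprays onto silt loam after sowing; formulation included a surfactant.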"}, "[2]": {"system": "buckwheat, wild (wild buckwheat, Polygonum convolvulus)", "in_short": "as §1"}, "[3]": {"system": "oilseed rape (Brassica napus)", "in_short": "as §1"}, "[4]": {"system": "galium (catchweed bedstraw, Galium aparine)", "in_short": "as §1"}, "[5]": {"system": "field poppy (Papaver rhoeas)", "in_short": "as §1"}, "[6]": {"system": "oat, wild (wild oat, Avena fatua)", "in_short": "as §1"}, "[7]": {"system": "pigweed (Amaranthus retroflexus)", "in_short": "as §1"}, "[8]": {"system": "mustard, wild (wild mustard, Sinapis arvensis)", "in_short": "as §1"}, "[9]": {"system": "chamomile (scentless chamomile, Matricaria inodora)", "in_short": "as §1"}, "[10]": {"system": "barley, winter (winter barley, Hordeum vulgare)", "in_short": "as §1"}, "[11]": {"system": "bluegrass (annual bluegrass, Poa annua)", "in_short": "as §1"}, "[12]": {"system": "radish, wild (wild radish, Raphanus raphanistrum)", "in_short": "as §1"}, "[13]": {"system": "barley, spring (spring barley, Hordeum vulgare)", "in_short": "as §1"}, "[14]": {"conditions": "Postemergence, 31 g ai/ha, scale 0 to 100 (0 no effect, 100 complete control)"}, "[15]": {"conditions": "Postemergence, 125 g ai/ha, visual rating on scale 0 (no effect) to 100 (complete control), 14 to 21 d"}, "[16]": {"conditions": "Postemergence, 250 g ai/ha, scale 0 to 100 (0 no effect, 100 complete control)"}, "[17]": {"conditions": "Preemergence, 62 g ai/ha, scale 0 to 100 (0 no effect, 100 complete control)"}, "[18]": {"conditions": "Preemergence, 125 g ai/ha, scale 0 to 100 (0 no effect, 100 complete control)"}, "[19]": {"conditions": "Preemergence, 250 g ai/ha, scale 0 to 100 (0 no effect, 100 complete control)"}, "[20]": {"conditions": "postemergence, 62 g ai/ha, scale 0 to 100, 0 no effect, 100 complete control"}}}
{"smiles": "CC(=O)Oc1c(C)nn(C)c(=O)c1-c1c(C)sc2c(C)cc(C)cc12", "note": "[Compound 27]", "values": [{"measurement": "Speedwell plant response rating", "setting": "[1]; [14]", "value": 35}, {"measurement": "Plant response rating, Speedwell", "setting": "[1]; [15]", "value": 100}, {"measurement": "Plant response rating, Speedwell", "setting": "[1]; [16]", "value": 100}, {"measurement": "Plant response rating (scale of 0 to 100), Speedwell", "setting": "[1]; Preemergence, 31 g ai/ha", "value": 75}, {"measurement": "Plant response rating, Speedwell", "setting": "[1]; [17]", "value": 100}, {"measurement": "Plant response rating, Speedwell", "setting": "[1]; [18]", "value": 100}, {"measurement": "Plant response rating, Speedwell", "setting": "[1]; [19]", "value": 100}, {"measurement": "Plant response rating, Speedwell", "setting": "[1]; [20]", "value": 70}, {"measurement": "Buckwheat, Wild plant response rating", "setting": "[2]; [14]", "value": 100}, {"measurement": "Plant response rating, Buckwheat, Wild", "setting": "[2]; [15]", "value": 100}, {"measurement": "Plant response rating, Buckwheat, Wild", "setting": "[2]; [16]", "value": 100}, {"measurement": "Plant response rating (scale of 0 to 100), Buckwheat, Wild", "setting": "[2]; Preemergence, 31 g ai/ha", "value": 25}, {"measurement": "Plant response rating, Buckwheat, Wild", "setting": "[2]; [17]", "value": 30}, {"measurement": "Plant response rating, Buckwheat, Wild", "setting": "[2]; [18]", "value": 45}, {"measurement": "Plant response rating, Buckwheat, Wild", "setting": "[2]; [19]", "value": 80}, {"measurement": "Plant response rating, Buckwheat, Wild", "setting": "[2]; [20]", "value": 100}, {"measurement": "Oilseed Rape plant response rating", "setting": "[3]; [14]", "value": 55}, {"measurement": "Plant response rating, Oilseed Rape", "setting": "[3]; [15]", "value": 70}, {"measurement": "Plant response rating, Oilseed Rape", "setting": "[3]; [16]", "value": 85}, {"measurement": "Plant response rating (scale of 0 to 100), Oilseed Rape", "setting": "[3]; Preemergence, 31 g ai/ha", "value": 0}, {"measurement": "Plant response rating, Oilseed Rape", "setting": "[3]; [17]", "value": 0}, {"measurement": "Plant response rating, Oilseed Rape", "setting": "[3]; [18]", "value": 0}, {"measurement": "Plant response rating, Oilseed Rape", "setting": "[3]; [19]", "value": 35}, {"measurement": "Plant response rating, Oilseed Rape", "setting": "[3]; [20]", "value": 65}, {"measurement": "Galium plant response rating", "setting": "[4]; [14]", "value": 100}, {"measurement": "Plant response rating, Galium", "setting": "[4]; [15]", "value": 100}, {"measurement": "Plant response rating, Galium", "setting": "[4]; [16]", "value": 100}, {"measurement": "Plant response rating (scale of 0 to 100), Galium", "setting": "[4]; Preemergence, 31 g ai/ha", "value": 60}, {"measurement": "Plant response rating, Galium", "setting": "[4]; [17]", "value": 70}, {"measurement": "Plant response rating, Galium", "setting": "[4]; [18]", "value": 85}, {"measurement": "Plant response rating, Galium", "setting": "[4]; [19]", "value": 100}, {"measurement": "Plant response rating, Galium", "setting": "[4]; [20]", "value": 100}, {"measurement": "Field Poppy plant response rating", "setting": "[5]; [14]", "value": 85}, {"measurement": "Plant response rating, Field Poppy", "setting": "[5]; [15]", "value": 100}, {"measurement": "Plant response rating, Field Poppy", "setting": "[5]; [16]", "value": 100}, {"measurement": "Plant response rating (scale of 0 to 100), Field Poppy", "setting": "[5]; Preemergence, 31 g ai/ha", "value": 100}, {"measurement": "Plant response rating, Field Poppy", "setting": "[5]; [17]", "value": 100}, {"measurement": "Plant response rating, Field Poppy", "setting": "[5]; [18]", "value": 100}, {"measurement": "Plant response rating, Field Poppy", "setting": "[5]; [19]", "value": 100}, {"measurement": "Plant response rating, Field Poppy", "setting": "[5]; [20]", "value": 100}, {"measurement": "Oat, Wild plant response rating", "setting": "[6]; [14]", "value": 75}, {"measurement": "Plant response rating, Oat, Wild", "setting": "[6]; [15]", "value": 90}, {"measurement": "Plant response rating, Oat, Wild", "setting": "[6]; [16]", "value": 98}, {"measurement": "Plant response rating (scale of 0 to 100), Oat, Wild", "setting": "[6]; Preemergence, 31 g ai/ha", "value": 85}, {"measurement": "Plant response rating, Oat, Wild", "setting": "[6]; [17]", "value": 85}, {"measurement": "Plant response rating, Oat, Wild", "setting": "[6]; [18]", "value": 90}, {"measurement": "Plant response rating, Oat, Wild", "setting": "[6]; [19]", "value": 95}, {"measurement": "Plant response rating, Oat, Wild", "setting": "[6]; [20]", "value": 85}, {"measurement": "Pigweed plant response rating", "setting": "[7]; [14]", "value": 75}, {"measurement": "Plant response rating, Pigweed", "setting": "[7]; [15]", "value": 95}, {"measurement": "Plant response rating, Pigweed", "setting": "[7]; [16]", "value": 95}, {"measurement": "Plant response rating (scale of 0 to 100), Pigweed", "setting": "[7]; Preemergence, 31 g ai/ha", "value": 100}, {"measurement": "Plant response rating, Pigweed", "setting": "[7]; [17]", "value": 100}, {"measurement": "Plant response rating, Pigweed", "setting": "[7]; [18]", "value": 100}, {"measurement": "Plant response rating, Pigweed", "setting": "[7]; [19]", "value": 100}, {"measurement": "Plant response rating, Pigweed", "setting": "[7]; [20]", "value": 85}, {"measurement": "Mustard, Wild plant response rating", "setting": "[8]; [14]", "value": 15}, {"measurement": "Plant response rating, Mustard, Wild", "setting": "[8]; [15]", "value": 30}, {"measurement": "Plant response rating, Mustard, Wild", "setting": "[8]; [16]", "value": 75}, {"measurement": "Plant response rating (scale of 0 to 100), Mustard, Wild", "setting": "[8]; Preemergence, 31 g ai/ha", "value": 40}, {"measurement": "Plant response rating, Mustard, Wild", "setting": "[8]; [17]", "value": 40}, {"measurement": "Plant response rating, Mustard, Wild", "setting": "[8]; [18]", "value": 45}, {"measurement": "Plant response rating, Mustard, Wild", "setting": "[8]; [19]", "value": 65}, {"measurement": "Plant response rating, Mustard, Wild", "setting": "[8]; [20]", "value": 40}, {"measurement": "Chamomile plant response rating", "setting": "[9]; [14]", "value": 80}, {"measurement": "Plant response rating, Chamomile", "setting": "[9]; [15]", "value": 95}, {"measurement": "Plant response rating, Chamomile", "setting": "[9]; [16]", "value": 100}, {"measurement": "Plant response rating (scale of 0 to 100), Chamomile", "setting": "[9]; Preemergence, 31 g ai/ha", "value": 100}, {"measurement": "Plant response rating, Chamomile", "setting": "[9]; [17]", "value": 100}, {"measurement": "Plant response rating, Chamomile", "setting": "[9]; [18]", "value": 100}, {"measurement": "Plant response rating, Chamomile", "setting": "[9]; [19]", "value": 100}, {"measurement": "Plant response rating, Chamomile", "setting": "[9]; [20]", "value": 90}, {"measurement": "Plant response rating, Barley, Winter", "setting": "[10]; [14]", "value": 0}, {"measurement": "Plant response rating, Barley, Winter", "setting": "[10]; [15]", "value": 5}, {"measurement": "Plant response rating, Barley, Winter", "setting": "[10]; [16]", "value": 5}, {"measurement": "Plant response rating (scale of 0 to 100), Barley, Winter", "setting": "[10]; Preemergence, 31 g ai/ha", "value": 0}, {"measurement": "Plant response rating, Barley, Winter", "setting": "[10]; [17]", "value": 0}, {"measurement": "Plant response rating, Barley, Winter", "setting": "[10]; [18]", "value": 10}, {"measurement": "Barley, Winter plant response rating", "setting": "[10]; [19]", "value": 15}, {"measurement": "Plant response rating, Barley, Winter", "setting": "[10]; [20]", "value": 0}, {"measurement": "Bluegrass plant response rating", "setting": "[11]; [14]", "value": 15}, {"measurement": "Plant response rating, Bluegrass", "setting": "[11]; [15]", "value": 30}, {"measurement": "Plant response rating, Bluegrass", "setting": "[11]; [16]", "value": 40}, {"measurement": "Plant response rating (scale of 0 to 100), Bluegrass", "setting": "[11]; Preemergence, 31 g ai/ha", "value": 25}, {"measurement": "Plant response rating, Bluegrass", "setting": "[11]; [17]", "value": 35}, {"measurement": "Plant response rating, Bluegrass", "setting": "[11]; [18]", "value": 70}, {"measurement": "Bluegrass plant response rating", "setting": "[11]; [19]", "value": 80}, {"measurement": "Plant response rating, Bluegrass", "setting": "[11]; [20]", "value": 25}, {"measurement": "Radish, Wild plant response rating", "setting": "[12]; [14]", "value": 65}, {"measurement": "Plant response rating, Radish, Wild", "setting": "[12]; [15]", "value": 85}, {"measurement": "Plant response rating, Radish, Wild", "setting": "[12]; [16]", "value": 90}, {"measurement": "Plant response rating (scale of 0 to 100), Radish, Wild", "setting": "[12]; Preemergence, 31 g ai/ha", "value": 0}, {"measurement": "Plant response rating, Radish, Wild", "setting": "[12]; [17]", "value": 50}, {"measurement": "Plant response rating, Radish, Wild", "setting": "[12]; [18]", "value": 60}, {"measurement": "Plant response rating, Radish, Wild", "setting": "[12]; [19]", "value": 95}, {"measurement": "Plant response rating, Radish, Wild", "setting": "[12]; [20]", "value": 75}, {"measurement": "Plant response rating, Barley, Spring", "setting": "[13]; [14]", "value": 0}, {"measurement": "Plant response rating, Barley, Spring", "setting": "[13]; [15]", "value": 5}, {"measurement": "Plant response rating, Barley, Spring", "setting": "[13]; [16]", "value": 10}, {"measurement": "Plant response rating (scale of 0 to 100), Barley, Spring", "setting": "[13]; Preemergence, 31 g ai/ha", "value": 0}, {"measurement": "Plant response rating, Barley, Spring", "setting": "[13]; [17]", "value": 0}, {"measurement": "Plant response rating, Barley, Spring", "setting": "[13]; [18]", "value": 0}, {"measurement": "Barley, Spring plant response rating", "setting": "[13]; [19]", "value": 0}, {"measurement": "Plant response rating, Barley, Spring", "setting": "[13]; [20]", "value": 0}]}
